Results on one molecule are retold here after patent publication US20140271770A1, “Methods And Compositions For Treating Post-Operative Pain Comprising Clonidine” (WARSAW ORTHOPEDIC, INC., priority 2013, published 2014).

The data set can be described thus: 14 day pharmacokinetic study, clonidine strips implanted in intermuscular pockets, plasma clonidine by LC/MS/MS. The class given is in vivo, beagle dogs. The conditions noted are these: mannitol as excipient in the clonidine strips. The source says: Clonidine strips were surgically implanted in intermuscular pockets in beagle dogs to evaluate the in vivo clonidine elution and plasma clonidine concentrations. Four male and four female dogs were divided into two groups of two (per sex). Group 1 received 6 strips of formulation 640-51 (5% clonidine HCl, 5% mannitol, 60:40 LCL 5A polymer, micronized API) and Group 2 received 6 strips of formulation 640-73 (4% clonidine HCl, 7.5% mannitol, 60:40 LCL 5A polymer, milled 25 micron API).
Blood was drawn at 30 minutes and 1, 2, 4, 8, and 24 hours post-implant. Blood was then drawn daily through day 7, and again at days 10 and 14. The blood was processed to plasma and the clonidine concentration in the plasma was determined by high performance liquid chromatography and tandem mass spectroscopy (LC/MS/MS).

Consider `OC[C@@H](O)[C@@H](O)[C@H](O)[C@H](O)CO` [Mannitol], for which the “effect on drug release within the first 72 hours” value is listed as “speeds up drug release”.
